The test system of assay [1] is Human alphaherpesvirus 1. Nature of the assay: Antiviral activity against HSV1. It counts as functional, organism-based.
Assay [2] deals with Human alphaherpesvirus 2. Briefly: Antiviral activity against HSV2. The format is functional, organism-based.

What is called EC50 is the concentration that produces a half-maximal response.

Each structure is given as a SMILES string. Values after ≈ are worked out from the molar mass of the structure shown. Active and inactive are the calls of the source. No cut-off for these calls is given here.

For the compound `O=C1OC2=C[C@@H](O[C@@H]3O[C@H](CO)[C@@H](O)[C@H](O)[C@H]3O)CCC2=C1C(O)c1ccccc1` (some centres undefined), the outcome in assay [1] and in assay [2] was inactive.

For `Nc1nc2c(ncn2COCCO)c(=O)[nH]1` [ACYCLOVIR], the concentration giving a half-maximal response (EC50) came to 0.24 µg/mL (≈ 1.07 µM) in assay [1] and 0.22 µg/mL (≈ 0.977 µM) in assay [2].

The values above are taken from ChEMBL document CHEMBL1158662, “Cochinolide, a new gamma-alkylidene bicyclic butenolide with antiviral activity, and its beta-glucopyranoside from Homalium cochinchinensis” (J Nat Prod, 1998).
